Test system: barnyardgrass
Test: Test A preemergence
Assay type: in vivo, Echinochloa crusgalli
Settings: visual injury after 10 days, 0 to 100 scale, 0 is no effect, 100 is complete control
How it was run: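 Loam/sand soil; pre-em directed soil spray at planting, post-em spray at 1–2 leaf (2–10 cm). Compound in non-phytotoxic solvent + surfactant. Greenhouse 10 d; visual injury vs untreated, 0 = no effect, 100 = complete control.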

SMILES | Plant response rating, Barnyardgrass (125 g ai/ha) | Plant response rating, Barnyardgrass (500 g ai/ha)
Cc1cccc2c1O[C@@H](C)CN2C(=O)c1cccc(-n2cnc(C3COC3)n2)c1 [Compound 109, [(2S)-2,3-Dihydro-2,8-dimethyl-4H-1,4-benzoxazin-4-yl][3-[3-(3-oxetanyl)-1H-1,2,4-triazol-1-yl]phenyl]methanone] | 90 | 
C[C@H]1CN(C(=S)c2cccc(-n3cncn3)c2)c2cccc(Cl)c2O1 [Compound 139, [(2S)-8-Chloro-2,3-dihydro-2-methyl-4H-1,4-benzoxazin-4-yl][3-(1H-1,2,4-triazol-1-yl)phenyl]methanethione] | 70 | 90
CC(C)c1ncn(-c2cc(C(=O)N3C[C@H](C)Oc4c(Cl)cccc43)c3ccccc3c2)n1 [Compound 145] | 0 | 40
CC(C)c1ncn(-c2cc(C(=O)N3C[C@H](C)Oc4c(Cl)cccc43)c3ccccc3c2)n1 [Compound 146] | 20 | 70
CC(C)c1ncn(-c2cc3c(c(C(=O)N4C[C@H](C)Oc5c(Cl)cccc54)c2)OCC3)n1 [Compound 147] | 40 | 100
